From patent US20260027125A1, “AN ANTIBACTERIAL PARENTERAL FORMULATION AND METHODS THEREOF” (BUGWORKS RESEARCH INDIA PVT. LTD., priority 2022, published 2026)

Columns and labels:
[1] = Solubility of free amine in solvents; assay type: physicochemical
[2] = Solubility study without acetic acid; assay type: physicochemical; settings: aqueous with cosolvent or surfactant or cyclodextrin, combination of ascorbic acid and lactic acid, read-out: solubilized at a concentration of
[3] = pKa (selection of counterions); assay type: physicochemical; settings: weakly basic nature of the compound
[4] = counter ion selected for salt screening; cited from earlier work

Cn1c(=O)ccc2ccc(F)c(CCNC[C@H]3CN(c4cnc5c(n4)NC(=O)CO5)C(=O)O3)c21 [compound of Formula (I), (S)-6-(5-(((2-(7-fluoro-1-methyl-2-oxo-1,2-dihydroquinolin-8-yl)ethyl)amino)methyl)-2-oxooxazolidin-3-yl)-2H-pyrazino[2,3-b][1,4]oxazin-3(4H)-one]
solubility in solvents [1]: soluble only in dichloromethane and methanol (1:1) mixture | solubility [2]: 20 mg/mL | pKa [3]: ~6.81

CCS(=O)(=O)O [ethane sulfonic acid]
pKa (first value) [4]: 1.68
